ChEMBL document CHEMBL1149942, “Characterization of the taxol structure-activity profile for the locus of the A-ring side chain” (1994)

How the values were obtained:
[1] = Activity in calf brain microtubule protein assembly assay.; assay type: functional, Bos taurus
J774 = assay: In vitro cytotoxicity against J774.2 cells after 72 hr incubation.; assay type: functional; details: Mus musculus, J774, 72 h; read-out: ED50 (the source's name)
J774.2 = assay: Compound was tested for cytotoxicity against J774.2 cells, concentration required to inhibit cell division by 50% after 72 hr incubation; assay type: functional; details: Mus musculus, J774.2, 72 h; read-out: ED50 (the source's name)

SMILES: CC(=O)O[C@H]1C(=O)[C@@]2(C)C([C@H](OC(=O)c3ccccc3)[C@]3(O)C[C@H](OC(=O)[C@H](O)CNC(=O)c4ccc(C(F)(F)F)cc4)C(C)=C1C3(C)C)[C@]1(OC(C)=O)CO[C@@H]1C[C@@H]2O (some centres not stated)
- Assembly [1]: 20%
- EC50 (J774): 23 µM

SMILES: CC(=O)O[C@H]1C(=O)[C@@]2(C)C([C@H](OC(=O)c3ccccc3)[C@]3(O)C[C@H](OC(=O)[C@H](O)[C@@H](NC(=O)c4ccc(C(F)(F)F)cc4)c4ccccc4)C(C)=C1C3(C)C)[C@]1(OC(C)=O)CO[C@@H]1C[C@@H]2O (some centres not stated)
- Assembly [1]: 80%
- EC50 (J774): 0.9 µM

SMILES: CC(=O)O[C@H]1C(=O)[C@@]2(C)C([C@H](OC(=O)c3ccccc3)[C@]3(O)C[C@H](OC(=O)[C@H](O)[C@@H](NC(=O)c4ccc(C(C)=O)cc4)c4ccccc4)C(C)=C1C3(C)C)[C@]1(OC(C)=O)CO[C@@H]1C[C@@H]2O (some centres not stated)
- Assembly [1]: 84%
- EC50 (J774): 1.6 µM

SMILES: CC(=O)O[C@H]1C(=O)[C@@]2(C)C([C@H](OC(=O)c3ccccc3)[C@]3(O)C[C@H](OC(=O)[C@H](O)CNC(=O)C(C)(C)C)C(C)=C1C3(C)C)[C@]1(OC(C)=O)CO[C@@H]1C[C@@H]2O (some centres not stated)
- Assembly [1]: 28%
- EC50 (J774): 40 µM

SMILES: CC(=O)O[C@H]1C(=O)[C@@]2(C)C([C@H](OC(=O)c3ccccc3)[C@]3(O)C[C@H](OC(=O)[C@H](O)CNC(=O)C4CCCCC4)C(C)=C1C3(C)C)[C@]1(OC(C)=O)CO[C@@H]1C[C@@H]2O (some centres not stated)
- Assembly [1]: 33%
- EC50 (J774): 16 µM

SMILES: CC(=O)O[C@H]1C(=O)[C@@]2(C)C([C@H](OC(=O)c3ccccc3)[C@]3(O)C[C@H](OC(=O)[C@H](O)CNC(=O)c4ccccc4)C(C)=C1C3(C)C)[C@]1(OC(C)=O)CO[C@@H]1C[C@@H]2O (some centres not stated)
- Assembly [1]: 60%
- EC50 (J774): 20 µM

SMILES: CC(=O)O[C@@]12CO[C@@H]1C[C@H](O)[C@@]1(C)C(=O)[C@H](O)C3=C(C)[C@@H](OC(=O)[C@H](O)[C@@H](NC(=O)OC(C)(C)C)c4ccccc4)C[C@@](O)([C@@H](OC(=O)c4ccccc4)[C@H]21)C3(C)C.O.O.O [DOCETAXEL]
- Assembly [1]: 105%
- EC50 (J774): 0.05 µM

SMILES: CC(=O)O[C@H]1C(=O)[C@@]2(C)C([C@H](OC(=O)c3ccccc3)[C@]3(O)C[C@H](OC(=O)[C@H](O)CNC(=O)OCc4ccccc4)C(C)=C1C3(C)C)[C@]1(OC(C)=O)CO[C@@H]1C[C@@H]2O (some centres not stated)
- Assembly [1]: 20%
- EC50 (J774): 16 µM

SMILES: CC(=O)O[C@H]1C(=O)[C@@]2(C)C([C@H](OC(=O)c3ccccc3)[C@]3(O)C[C@H](OC(=O)[C@H](O)[C@@H](NC(=O)OCc4ccccc4)c4ccccc4)C(C)=C1C3(C)C)[C@]1(OC(C)=O)CO[C@@H]1C[C@@H]2O (some centres not stated)
- Assembly [1]: 94%
- EC50 (J774): 0.19 µM

SMILES: CC(=O)O[C@H]1C(=O)[C@@]2(C)C([C@H](OC(=O)c3ccccc3)[C@]3(O)C[C@H](OC(=O)[C@H](O)[C@@H](NC(=O)c4ccccc4O)c4ccccc4)C(C)=C1C3(C)C)[C@]1(OC(C)=O)CO[C@@H]1C[C@@H]2O (some centres not stated)
- Assembly [1]: 93%
- EC50 (J774): 0.56 µM

SMILES: CCCCCC(=O)NC[C@@H](O)C(=O)O[C@H]1C[C@@]2(O)[C@@H](OC(=O)c3ccccc3)C3[C@](C)(C(=O)[C@H](OC(C)=O)C(=C1C)C2(C)C)[C@@H](O)C[C@H]1OC[C@@]31OC(C)=O (some centres not stated)
- EC50 (J774.2): 26 µM
- Assembly [1]: 34%

SMILES: CC(=O)O[C@H]1C(=O)[C@@]2(C)C([C@H](OC(=O)c3ccccc3)[C@]3(O)C[C@H](OC(=O)[C@H](O)[C@@H](NC(=O)c4ccc(C(=O)c5ccccc5)cc4)c4ccccc4)C(C)=C1C3(C)C)[C@]1(OC(C)=O)CO[C@@H]1C[C@@H]2O (some centres not stated)
- Assembly [1]: 39%
- EC50 (J774): 1.5 µM

SMILES: CC(=O)O[C@H]1C(=O)[C@@]2(C)C([C@H](OC(=O)c3ccccc3)[C@]3(O)C[C@H](OC(=O)[C@H](O)CNC(=O)c4ccc(N=[N+]=[N-])cc4)C(C)=C1C3(C)C)[C@]1(OC(C)=O)CO[C@@H]1C[C@@H]2O (some centres not stated)
- Assembly [1]: 25%
- EC50 (J774): 20 µM

SMILES: CC(=O)O[C@H]1C(=O)[C@@]2(C)C([C@H](OC(=O)c3ccccc3)[C@]3(O)C[C@H](OC(=O)[C@H](O)CNC(=O)OC(C)(C)C)C(C)=C1C3(C)C)[C@]1(OC(C)=O)CO[C@@H]1C[C@@H]2O (some centres not stated)
- Assembly [1]: 51%
- EC50 (J774): 2 µM

SMILES: CC(=O)O[C@H]1C(=O)[C@@]2(C)C([C@H](OC(=O)c3ccccc3)[C@]3(O)C[C@H](OC(=O)[C@H](O)CNC(=O)c4ccc5ccccc5c4)C(C)=C1C3(C)C)[C@]1(OC(C)=O)CO[C@@H]1C[C@@H]2O (some centres not stated)
- EC50 (J774.2): 26 µM
- Assembly [1]: 28%

SMILES: CC(=O)O[C@H]1C(=O)[C@@]2(C)C([C@H](OC(=O)c3ccccc3)[C@]3(O)C[C@H](OC(=O)[C@H](O)[C@@H](NC(=O)c4ccc(N=[N+]=[N-])cc4)c4ccccc4)C(C)=C1C3(C)C)[C@]1(OC(C)=O)CO[C@@H]1C[C@@H]2O (some centres not stated)
- Assembly [1]: 90%
- EC50 (J774): 0.28 µM

SMILES: Nc1nc2c(ncn2[C@@H]2O[C@H](COP(=O)(O)OP(=O)(O)OP(=O)(O)O)[C@@H](O)[C@H]2O)c(=O)[nH]1 [GUANOSINE TRIPHOSPHATE]
- Assembly [1]: 70%

SMILES: CC(=O)O[C@H]1C(=O)[C@@]2(C)[C@H]([C@H](OC(=O)c3ccccc3)[C@]3(O)C[C@H](OC(=O)[C@H](O)[C@@H](NC(=O)c4ccccc4)c4ccccc4)C(C)=C1C3(C)C)[C@]1(OC(C)=O)CO[C@@H]1C[C@@H]2O [PACLITAXEL]
- Assembly [1]: 100%
- EC50 (J774): 0.09 µM

SMILES: CC(=O)O[C@H]1C(=O)[C@@]2(C)C([C@H](OC(=O)c3ccccc3)[C@]3(O)C[C@H](OC(=O)[C@H](O)CNC(=O)C45CC6CC(CC(C6)C4)C5)C(C)=C1C3(C)C)[C@]1(OC(C)=O)CO[C@@H]1C[C@@H]2O (some centres not stated)
- Assembly [1]: 24%
- EC50 (J774): 11 µM
